Counter-ions that a name gives are not always drawn.
Target: human-derived PIKfyve kinase (Homo sapiens (Human), UniProt Q9Y2I7)
Assay: PIKfyve enzyme inhibition assay (ADP-Glo)
Assay type: biochemical
Conditions: PIKfyve enzyme inhibitory assay; PI(3)P 10 μm, ATP 2 μm, 60 minutes
Procedure: For each of the compounds prepared in Examples 1 to 33, the PIKfyve enzyme inhibitory activity was measured by using a QS S Assis PIKFYVE (PIP5K3)_ADP-Glo™ Kit (Cat. #11-118) made by Carna Bioscience. 5 μL of each of human-derived PIKfyve kinase, PI(3)P, and ATP solution was added to a 384-well plate (such that final concentrations of each solution are 375 ng/ml, 10 μm, and 2 μm, respectively). The compound to be evaluated underwent serial dilution according to the set concentrations, and 5 μL of the diluted solution was added to each well and caused a reaction for 60 minutes. MgCl2 was mixed in ADP-Glo™ solution (Promega, Cat. #V9102) to a final concentration of 100 mM, and 20 μL of the mixed solution was added to each well and caused a reaction at room temperature for 40 minutes. 40 μL of kinase detection solution was added to each well and caused a reaction at room temperature for 40 minutes. Then, the luminescence signals were detected by using a Synergy™ NEO microplate analyzer. Well to which no enzyme was added were used as a negative control, whereas wells to which no drug was added were used as a positive control, so as to calculate the enzyme inhibitory ability (%) of drugs. The 50% inhibitor concentration (IC50) values were calculated by using a GraphPad Prism software.
In Table 1, when the case where the IC50 value was 50 nM or less was indicated as A, the case where the IC50 value was greater than 50 nM but equal to or less than 100 nM was indicated as B, and the case where the IC50 value was greater than 100 nM was indicated as C.

Chain of human-derived PIKfyve kinase (Q9Y2I7 whole entry): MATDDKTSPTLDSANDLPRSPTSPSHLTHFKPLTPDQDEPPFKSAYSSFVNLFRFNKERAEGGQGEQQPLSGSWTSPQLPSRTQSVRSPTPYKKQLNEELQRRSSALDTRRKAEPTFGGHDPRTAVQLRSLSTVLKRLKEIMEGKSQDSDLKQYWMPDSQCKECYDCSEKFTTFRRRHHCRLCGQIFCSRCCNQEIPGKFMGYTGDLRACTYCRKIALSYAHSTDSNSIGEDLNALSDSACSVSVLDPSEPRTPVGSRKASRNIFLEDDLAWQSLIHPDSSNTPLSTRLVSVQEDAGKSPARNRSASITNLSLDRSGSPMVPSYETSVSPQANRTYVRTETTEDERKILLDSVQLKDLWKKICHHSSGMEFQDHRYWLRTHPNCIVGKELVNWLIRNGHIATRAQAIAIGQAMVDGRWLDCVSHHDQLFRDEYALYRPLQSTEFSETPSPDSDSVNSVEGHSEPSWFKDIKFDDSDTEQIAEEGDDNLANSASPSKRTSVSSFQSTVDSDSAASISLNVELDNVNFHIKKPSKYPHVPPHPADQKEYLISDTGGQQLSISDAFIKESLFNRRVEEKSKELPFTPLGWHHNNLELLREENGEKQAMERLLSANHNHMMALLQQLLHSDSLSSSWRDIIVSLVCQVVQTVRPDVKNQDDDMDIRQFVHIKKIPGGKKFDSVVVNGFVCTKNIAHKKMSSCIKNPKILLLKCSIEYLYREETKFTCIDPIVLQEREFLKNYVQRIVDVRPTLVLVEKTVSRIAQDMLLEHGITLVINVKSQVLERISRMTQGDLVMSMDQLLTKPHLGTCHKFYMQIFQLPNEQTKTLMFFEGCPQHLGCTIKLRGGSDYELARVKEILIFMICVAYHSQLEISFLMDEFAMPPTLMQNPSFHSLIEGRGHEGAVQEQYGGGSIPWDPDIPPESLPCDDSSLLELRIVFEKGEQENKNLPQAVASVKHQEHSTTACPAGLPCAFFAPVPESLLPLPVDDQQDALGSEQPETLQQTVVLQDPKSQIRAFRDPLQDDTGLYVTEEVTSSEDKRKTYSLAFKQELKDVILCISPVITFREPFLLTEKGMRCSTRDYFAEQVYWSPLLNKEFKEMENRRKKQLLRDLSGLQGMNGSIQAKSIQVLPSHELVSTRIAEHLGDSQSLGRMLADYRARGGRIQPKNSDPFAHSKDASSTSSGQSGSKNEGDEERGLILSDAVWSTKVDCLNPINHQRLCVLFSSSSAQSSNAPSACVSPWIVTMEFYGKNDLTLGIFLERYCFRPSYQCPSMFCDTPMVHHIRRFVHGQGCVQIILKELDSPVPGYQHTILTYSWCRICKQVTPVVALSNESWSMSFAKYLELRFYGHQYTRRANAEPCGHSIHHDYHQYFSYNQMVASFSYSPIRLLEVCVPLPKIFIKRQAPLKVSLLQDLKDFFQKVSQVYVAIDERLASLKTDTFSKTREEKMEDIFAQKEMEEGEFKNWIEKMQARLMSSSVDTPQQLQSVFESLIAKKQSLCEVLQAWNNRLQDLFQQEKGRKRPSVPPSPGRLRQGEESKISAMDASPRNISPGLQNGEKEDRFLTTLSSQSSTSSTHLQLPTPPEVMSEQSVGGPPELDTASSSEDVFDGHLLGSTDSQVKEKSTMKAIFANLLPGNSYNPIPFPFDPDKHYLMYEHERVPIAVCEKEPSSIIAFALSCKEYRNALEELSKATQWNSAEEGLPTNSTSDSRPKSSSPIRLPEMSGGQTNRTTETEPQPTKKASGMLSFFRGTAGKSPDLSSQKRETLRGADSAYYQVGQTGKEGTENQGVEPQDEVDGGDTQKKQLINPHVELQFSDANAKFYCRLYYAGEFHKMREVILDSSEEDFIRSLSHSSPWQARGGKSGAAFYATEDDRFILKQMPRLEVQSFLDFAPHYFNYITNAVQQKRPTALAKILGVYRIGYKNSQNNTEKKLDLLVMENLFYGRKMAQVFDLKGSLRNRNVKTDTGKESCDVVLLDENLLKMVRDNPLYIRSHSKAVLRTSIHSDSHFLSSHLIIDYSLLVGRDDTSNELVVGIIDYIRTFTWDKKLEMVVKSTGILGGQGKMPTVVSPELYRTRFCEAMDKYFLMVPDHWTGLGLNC

IC50 [nM]	SMILES
≤ 50	O=C(Nc1cccc(-c2nc(N3CCOCC3)c3sc(-c4ccncc4)cc3n2)c1)c1ccncc1 [Example 1, N-(3-(4-morpholino-6-(pyridin-4-yl)thieno[3,2-d]pyrimidin-2-yl)phenyl)isonicotinamide]
≤ 50	O=C(Nc1cccc(-c2nc(N3CCOCC3)c3sc(-c4cccnc4)cc3n2)c1)c1ccncc1 [Example 2, N-(3-(4-morpholino-6-(pyridin-3-yl)thieno[3,2-d]pyrimidin-2-yl)phenyl)isonicotinamide]
≤ 50	O=C(Nc1cccc(-c2nc(N3CCOCC3)c3sc(-c4cnco4)cc3n2)c1)c1ccncc1 [Example 3, N-(3-(4-morpholino-6-(oxazol-5-yl)thieno[3,2-d]pyrimidin-2-yl)phenyl)isonicotinamide]
≤ 50	O=C(Nc1cccc(-c2nc(N3CCOCC3)c3sc(-c4ccncc4)cc3n2)c1)c1cccnc1 [Example 4, N-(3-(4-morpholino-6-(pyridin-4-yl)thieno[3,2-d]pyrimidin-2-yl)phenyl)nicotinamide]
≤ 50	O=C(Nc1cccc(-c2nc(N3CCOCC3)c3sc(-c4cccnc4)cc3n2)c1)c1cccnc1 [Example 5, N-(3-(4-morpholino-6-(pyridin-3-yl)thieno[3,2-d]pyrimidin-2-yl)phenyl)nicotinamide]
≤ 50	Nc1ccc(-c2cc3nc(-c4cccc(NC(=O)c5cccnc5)c4)nc(N4CCOCC4)c3s2)cc1 [Example 6, N-(3-(6-(4-aminophenyl)-4-morpholinothieno[3,2-d]pyrimidin-2-yl)phenyl)nicotinamide hydrochloride]
≤ 50	O=C(Nc1cccc(-c2nc(N3CCOCC3)c3sc(-c4cnco4)cc3n2)c1)c1cccnc1 [Example 7, N-(3-(4-morpholino-6-(oxazol-5-yl)thieno[3,2-d]pyrimidin-2-yl)phenyl)nicotinamide]
≤ 50	O=C(Nc1cccc(-c2nc(N3CCOCC3)c3sc(-c4ccnc5[nH]ccc45)cc3n2)c1)c1cccnc1 [Example 9, N-(3-(4-morpholino-6-(1H-pyrrolo[2,3-b]pyridin-4-yl)thieno[3,2-d]pyrimidin-2-yl)phenyl)nicotinamide]
50 to 100	O=C(Nc1cccc(-c2nc(N3CCOCC3)c3sc(-c4ccnc5[nH]ncc45)cc3n2)c1)c1cccnc1 [Example 10, N-(3-(4-morpholino-6-(1H-pyrazolo[3,4-b]pyridin-4-yl)thieno[3,2-d]pyrimidin-2-yl)phenyl)nicotinamide]
> 100	O=C(Nc1cccc(-c2nc(N3CCOCC3)c3sc(-c4cncc5[nH]ccc45)cc3n2)c1)c1cccnc1 [Example 11, N-(3-(4-morpholino-6-(1H-pyrrolo[2,3-c]pyridin-4-yl)thieno[3,2-d]pyrimidin-2-yl)phenyl)nicotinamide]
≤ 50	O=C(Nc1cccc(-c2nc(N3CCOCC3)c3sc(-c4cccnc4)cc3n2)c1)c1cocn1 [Example 12, N-(3-(4-morpholino-6-(pyridin-3-yl)thieno[3,2-d]pyrimidin-2-yl)phenyl) oxazole-4-carboxamide]
≤ 50	O=C(Nc1cccc(-c2nc(N3CCOCC3)c3sc(-c4cccnc4)cc3n2)c1)c1cnco1 [Example 13, N-(3-(4-morpholino-6-(pyridin-3-yl)thieno[3,2-d]pyrimidin-2-yl)phenyl) oxazole-5-carboxamide]
≤ 50	O=C(Nc1cccc(-c2nc(N3CCOCC3)c3sc(-c4cccnc4)cc3n2)c1)c1ncco1 [Example 14, N-(3-(4-morpholino-6-(pyridin-3-yl)thieno[3,2-d]pyrimidin-2-yl)phenyl) oxazole-2-carboxamide]
50 to 100	Cc1ncc(C(=O)Nc2cccc(-c3nc(N4CCOCC4)c4sc(-c5cccnc5)cc4n3)c2)o1 [Example 15, 2-methyl-N-(3-(4-morpholino-6-(pyridin-3-yl)thieno[3,2-d]pyrimidin-2-yl)phenyl) oxazole-5-carboxamide]
≤ 50	Cc1ncoc1C(=O)Nc1cccc(-c2nc(N3CCOCC3)c3sc(-c4cccnc4)cc3n2)c1 [Example 16, 4-methyl-N-(3-(4-morpholino-6-(pyridin-3-yl)thieno[3,2-d]pyrimidin-2-yl)phenyl) oxazole-5-carboxamide]
≤ 50	Cc1nc(C)c(C(=O)Nc2cccc(-c3nc(N4CCOCC4)c4sc(-c5cccnc5)cc4n3)c2)o1 [Example 17, 2,4-dimethyl-N-(3-(4-morpholino-6-(pyridin-3-yl)thieno[3,2-d]pyrimidin-2-yl)phenyl) oxazole-5-carboxamide]

IC50 [nM]	SMILES
> 100	O=C(Nc1cccc(-c2nc(N3CCOCC3)c3sc(-c4cccnc4)cc3n2)c1)c1cscn1 [Example 18, N-(3-(4-morpholino-6-(pyridin-3-yl)thieno[3,2-d]pyrimidin-2-yl)phenyl) thiazole-4-carboxamide]
≤ 50	O=C(Nc1cccc(-c2nc(N3CCOCC3)c3sc(-c4cccnc4)cc3n2)c1)c1cncs1 [Example 19, N-(3-(4-morpholino-6-(pyridin-3-yl)thieno[3,2-d]pyrimidin-2-yl)phenyl) thiazole-5-carboxamide]
> 100	O=C(Nc1cccc(-c2nc(N3CCOCC3)c3sc(-c4cccnc4)cc3n2)c1)c1nccs1 [Example 20, N-(3-(4-morpholino-6-(pyridin-3-yl)thieno[3,2-d]pyrimidin-2-yl)phenyl) thiazole-2-carboxamide]
≤ 50	Cc1ncc(C(=O)Nc2cccc(-c3nc(N4CCOCC4)c4sc(-c5cccnc5)cc4n3)c2)s1 [Example 21, 2-methyl-N-(3-(4-morpholino-6-(pyridin-3-yl)thieno[3,2-d]pyrimidin-2-yl)phenyl) thiazole-5-carboxamide]
≤ 50	Cc1ncsc1C(=O)Nc1cccc(-c2nc(N3CCOCC3)c3sc(-c4cccnc4)cc3n2)c1 [Example 22, 4-methyl-N-(3-(4-morpholino-6-(pyridin-3-yl)thieno[3,2-d]pyrimidin-2-yl)phenyl) thiazole-5-carboxamide]
50 to 100	Cc1nc(C)c(C(=O)Nc2cccc(-c3nc(N4CCOCC4)c4sc(-c5cccnc5)cc4n3)c2)s1 [Example 23, 2,4-dimethyl-N-(3-(4-morpholino-6-(pyridin-3-yl)thieno[3,2-d]pyrimidin-2-yl)phenyl) thiazole-5-carboxamide]
≤ 50	O=C(Nc1cccc(-c2nc(N3CCOCC3)c3sc(-c4cccnc4)cc3n2)c1)C1CCCNC1 (centres unmarked) [Example 24, N-(3-(4-morpholino-6-(pyridin-3-yl)thieno[3,2-d]pyrimidin-2-yl)phenyl)piperidine-3-carboxamide]
≤ 50	O=C(Nc1cccc(-c2nc(N3CCOCC3)c3sc(-c4cccnc4)cc3n2)c1)C1CCNCC1 [Example 25, N-(3-(4-morpholino-6-(pyridin-3-yl)thieno[3,2-d]pyrimidin-2-yl)phenyl)piperidine-4-carboxamide]
50 to 100	O=C(Nc1cccc(-c2nc(N3CCOCC3)c3sc(-c4cccnc4)cc3n2)c1)C1CCN(CCO)CC1 [Example 26, 1-(2-hydroxyethyl)-N-(3-(4-morpholino-6-(pyridin-3-yl)thieno[3,2-d]pyrimidin-2-yl)phenyl)piperidine-4-carboxamide]
50 to 100	COCCN1CCC(C(=O)Nc2cccc(-c3nc(N4CCOCC4)c4sc(-c5cccnc5)cc4n3)c2)CC1 [Example 27, 1-(2-methoxyethyl)-N-(3-(4-morpholino-6-(pyridin-3-yl)thieno[3,2-d]pyrimidin-2-yl)phenyl)piperidine-4-carboxamide]
> 100	O=CN1CCC(C(=O)Nc2cccc(-c3nc(N4CCOCC4)c4sc(-c5cccnc5)cc4n3)c2)CC1 [Example 28, 1-formyl-N-(3-(4-morpholino-6-(pyridin-3-yl)thieno[3,2-d]pyrimidin-2-yl)phenyl)piperidine-4-carboxamide]
> 100	CC(=O)N1CCC(C(=O)Nc2cccc(-c3nc(N4CCOCC4)c4sc(-c5cccnc5)cc4n3)c2)CC1 [Example 29, 1-acetyl-N-(3-(4-morpholino-6-(pyridin-3-yl)thieno[3,2-d]pyrimidin-2-yl)phenyl)piperidine-4-carboxamide]
> 100	COC(=O)N1CCC(C(=O)Nc2cccc(-c3nc(N4CCOCC4)c4sc(-c5cccnc5)cc4n3)c2)CC1 [Example 30, methyl 4-((3-(4-morpholino-6-(pyridin-3-yl)thieno[3,2-d]pyrimidin-2-yl)phenyl)carbamoyl)piperidine-1-carboxylate]
≤ 50	CCOC(=O)N1CCC(C(=O)Nc2cccc(-c3nc(N4CCOCC4)c4sc(-c5cccnc5)cc4n3)c2)CC1 [Example 31, ethyl 4-((3-(4-morpholino-6-(pyridin-3-yl)thieno[3,2-d]pyrimidin-2-yl)phenyl)carbamoyl)piperidine-1-carboxylate]
≤ 50	O=C(Nc1cccc(-c2nc(N3CCOCC3)c3sc(-c4cccnc4)cc3n2)c1)[C@H]1CC[C@@H](O)CC1 [Example 32, (1s,4s)-4-hydroxy-N-(3-(4-morpholino-6-(pyridin-3-yl)thieno[3,2-d]pyrimidin-2-yl)phenyl)cyclohexane-1-carboxamide]
≤ 50	O=C(Nc1cccc(-c2nc(N3CCOCC3)c3sc(-c4cnco4)cc3n2)c1)c1cocn1 [Example 33, N-(3-(4-morpholino-6-(oxazol-5-yl)thieno[3,2-d]pyrimidin-2-yl)phenyl)oxazole-4-carboxamide]
